In patent publication US20090029992A1, “SUBSTITUTED PYRAZOLE COMPOUNDS” (priority 2007, published 2009):

What was measured:
Type in all cases: biochemical
recombinant Aurora A = target: T1, recombinant Aurora A (Homo sapiens, UniProt O14965); experiment: Aurora A (Aurora 2) inhibition assay, Z'-Lyte kinase assay; details: ATP 10 μM, 1 h
T1 construct: purchased Upstate, Lake Placid, N.Y
T1 sequence (O14965 1-403): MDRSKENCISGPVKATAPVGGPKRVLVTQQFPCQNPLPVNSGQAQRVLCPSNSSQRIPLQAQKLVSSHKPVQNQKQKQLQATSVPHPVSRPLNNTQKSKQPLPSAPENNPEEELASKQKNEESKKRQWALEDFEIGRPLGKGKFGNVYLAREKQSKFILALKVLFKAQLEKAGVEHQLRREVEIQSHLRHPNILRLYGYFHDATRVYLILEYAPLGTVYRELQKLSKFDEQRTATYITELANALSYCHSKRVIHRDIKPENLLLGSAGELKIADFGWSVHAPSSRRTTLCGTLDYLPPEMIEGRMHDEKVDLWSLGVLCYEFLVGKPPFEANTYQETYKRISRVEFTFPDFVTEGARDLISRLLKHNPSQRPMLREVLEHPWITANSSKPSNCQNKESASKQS
Outline: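 Z'-Lyte FRET assay: Aurora A (200-500 ng/mL final), Ser/Thr 1 peptide (2 μM) and ATP (10 μM) in 50 mM HEPES pH 7.5, 10 mM MgCl2, 5 mM EGTA, 0.05% Brij-35, 2 mM DTT, 1 h at room temperature. Coumarin/fluorescein emission ratio converted to percent phosphorylation; dose-response curves plotted.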

[1] = target: T2, N-terminal GST-tagged recombinant human Flt3, residues 564-end (Homo sapiens, UniProt P36888); experiment: Flt3 kinase inhibition assay (33P-ATP filter assay); details: 40 minutes at room temperature
T2 construct: recombinant human Flt3, residues 564-end; GST (N); purchased Upstate USA Inc, 706 Forest Street, Charlottesville, Va
T2 sequence (P36888 564-993 limits assumed): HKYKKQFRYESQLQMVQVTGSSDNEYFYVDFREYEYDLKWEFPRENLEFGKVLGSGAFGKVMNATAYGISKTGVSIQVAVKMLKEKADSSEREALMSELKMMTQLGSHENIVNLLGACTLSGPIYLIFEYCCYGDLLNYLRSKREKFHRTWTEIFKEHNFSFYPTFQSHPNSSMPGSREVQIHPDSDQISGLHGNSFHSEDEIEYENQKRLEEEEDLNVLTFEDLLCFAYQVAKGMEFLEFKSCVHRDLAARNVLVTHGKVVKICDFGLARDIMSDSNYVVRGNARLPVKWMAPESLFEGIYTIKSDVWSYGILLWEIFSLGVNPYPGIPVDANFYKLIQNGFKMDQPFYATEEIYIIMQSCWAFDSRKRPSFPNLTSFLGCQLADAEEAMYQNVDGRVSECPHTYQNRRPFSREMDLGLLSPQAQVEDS
Outline: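 Serial compound dilutions incubated 40 min at room temperature with 5-10 mU Flt3 kinase, 50 μM peptide substrate and [γ-33P]ATP/10 mM magnesium acetate, pH 7.0. Phosphoric acid stop, filter capture and scintillation counting; activity compared with uninhibited reactions.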

[2] = target: T3, N-terminal His6-tagged recombinant human KDR, residues 790-end (Homo sapiens, UniProt P35968); experiment: KDR kinase inhibition assay (33P-ATP filter assay)
T3 construct: recombinant human KDR, residues 790-end; His6 (N); purchased Upstate USA Inc, 706 Forest Street, Charlottesville, Va
Outline: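 Radiometric filter assay: reaction started with Mg acetate (10 mM)/[γ-33P]ATP mix, run 40 min at room temperature in 8 mM MOPS pH 7.0 with 0.2 mM EDTA, MBP substrate (0.33 mg/mL) and recombinant KDR 790-end (5-10 mU). Phosphate incorporation by scintillation counting of P30 filtermats, compared with uninhibited reactions.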

[3] = group with IC50 greater than 100 nM

T3 sequence (P35968 790-1356 limits assumed): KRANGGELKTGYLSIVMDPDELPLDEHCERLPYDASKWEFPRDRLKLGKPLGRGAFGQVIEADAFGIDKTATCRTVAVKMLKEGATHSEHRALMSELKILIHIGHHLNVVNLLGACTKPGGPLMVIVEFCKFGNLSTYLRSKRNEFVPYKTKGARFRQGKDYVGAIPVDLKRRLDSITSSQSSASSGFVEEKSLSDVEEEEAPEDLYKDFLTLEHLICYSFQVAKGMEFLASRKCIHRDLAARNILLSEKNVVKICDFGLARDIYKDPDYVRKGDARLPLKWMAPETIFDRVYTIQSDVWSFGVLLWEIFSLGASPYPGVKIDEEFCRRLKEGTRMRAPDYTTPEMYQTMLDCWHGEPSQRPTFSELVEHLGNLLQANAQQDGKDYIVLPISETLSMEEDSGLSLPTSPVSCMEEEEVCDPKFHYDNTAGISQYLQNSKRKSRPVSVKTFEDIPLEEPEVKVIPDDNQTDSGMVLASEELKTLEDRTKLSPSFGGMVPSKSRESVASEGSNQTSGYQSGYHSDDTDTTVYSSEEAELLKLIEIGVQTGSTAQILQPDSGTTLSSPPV

Structure (SMILES)	IC50 (recombinant Aurora A) [nM]	IC50 [1] [nM]	IC50 [2, 3] [nM]	IC50 ([2]; 40 minutes at room temperature) [nM]	IC50 (recombinant Aurora A; [3]) [nM]
Cc1cc(Nc2cc(N3CCN(C)CC3)nc(-c3cccc(OCc4ccccc4)c3)n2)n[nH]1 [Example 188, 2-(3-(benzyloxy)phenyl)-N-(5-methyl-1H-pyrazol-3-yl)-6-(4-methylpiperazin-1-yl)pyrimidin-4-amine]	≤ 100	≤ 100	≤ 1000		
CCOc1cccc(-c2nc(Nc3cc(C)[nH]n3)cc(N3CCN(C)CC3)n2)c1 [Example 190, 2-(3-ethoxyphenyl)-N-(5-methyl-1H-pyrazol-3-yl)-6-(4-methylpiperazin-1-yl)pyrimidin-4-amine]	≤ 100	≤ 100		≤ 100	
COc1cc(OC)cc(-c2nc(Nc3cc(C)[nH]n3)cc(N3CCN(C)CC3)n2)c1 [Example 191, 2-(3,5-dimethoxyphenyl)-N-(5-methyl-1H-pyrazol-3-yl)-6-(4-methylpiperazin-1-yl)pyrimidin-4-amine]	≤ 100	≤ 100		≤ 100	
Cc1cc(Nc2cc(N3CCN(C)CC3)nc(-c3cccc(OC(F)(F)F)c3)n2)n[nH]1 [Example 192, N-(5-methyl-1H-pyrazol-3-yl)-6-(4-methylpiperazin-1-yl)-2-(3-(trifluoromethoxy)phenyl)pyrimidin-4-amine]	≤ 100	≤ 100	≤ 1000		
Cc1ccc(F)c(-c2nc(Nc3cc(C)[nH]n3)cc(N3CCN(C)CC3)n2)c1 [Example 193, 2-(2-fluoro-5-methylphenyl)-N-(5-methyl-1H-pyrazol-3-yl)-6-(4-methylpiperazin-1-yl)pyrimidin-4-amine]	≤ 100	≤ 100		≤ 100	
Cc1cc(Nc2cc(N3CCN(C)CC3)nc(-c3cc(F)ccc3C)n2)n[nH]1 [Example 196, 2-(5-fluoro-2-methylphenyl)-N-(5-methyl-1H-pyrazol-3-yl)-6-(4-methylpiperazin-1-yl)pyrimidin-4-amine]		≤ 100		≤ 100	≤ 1000
COc1ccc(F)c(-c2nc(Nc3cc(C)[nH]n3)cc(N3CCN(C)CC3)n2)c1 [Example 197, 2-(2-fluoro-5-methoxyphenyl)-N-(5-methyl-1H-pyrazol-3-yl)-6-(4-methylpiperazin-1-yl)pyrimidin-4-amine]	≤ 100	≤ 100		≤ 100	
Cc1cc(Nc2cc(N3CCN(C)CC3)nc(-c3cccc(F)c3F)n2)n[nH]1 [Example 200]		≤ 100		≤ 100	≤ 1000
Cc1ccc(C)c(-c2nc(Nc3cc(C)[nH]n3)cc(N3CCN(C)CC3)n2)c1 [Example 201, 2-(2,5-dimethylphenyl)-N-(5-methyl-1H-pyrazol-3-yl)-6-(4-methylpiperazin-1-yl)pyrimidin-4-amine]		≤ 100	≤ 1000		≤ 1000
Cc1cc(Nc2cc(N3CCN(C)CC3)nc(-c3cccc4ccoc34)n2)n[nH]1 [Example 203, 2-(benzofuran-7-yl)-N-(5-methyl-1H-pyrazol-3-yl)-6-(4-methylpiperazin-1-yl)pyrimidin-4-amine]	≤ 100	≤ 100		≤ 100	
Cc1cc(Nc2cc(NC3CCOCC3)nc(-c3cccc4ccoc34)n2)n[nH]1 [Example 204, 2-(benzofuran-7-yl)-N^4-(5-methyl-1H-pyrazol-3-yl)-N^6-(tetrahydro-2H-pyran-4-yl)pyrimidine-4,6-diamine]		≤ 100	≤ 1000		≤ 1000
Cc1cc(Nc2cc(N(C)CCN(C)C)nc(-c3cccc4ccoc34)n2)n[nH]1 [Example 205, 2-(benzofuran-7-yl)-N^4-(2-(dimethylamino)ethyl)-N^4-methyl-N^6-(5-methyl-1H-pyrazol-3-yl)pyrimidine-4,6-diamine]		≤ 100	≤ 1000		≤ 1000
